Measurements taken from PMC12651750 (Cells, 2025).
Where two headings read alike, the source gives them in different places.

Legend:
[1] = tested on: 4T1, mouse breast cancer cell line; assay: Anti-proliferation MTT / CCK-8 assay; type: cell-based; conditions: 72 h
Description: (§1) K562, human erythroleukemia line; HL-60, human leukemic cell line; Jurkat, human leukemic T cell line; CCRF-CEM, human leukemic lymphoblasts; U937, human histiocytic lymphoma; HCT-116, human colorectal cancer cell line; A549, human lung cancer cell line; Hep G2, human hepatoma cell lines; MDA-MB-231, MCF-7, human breast cancer cell line; 4T1, mouse breast cancer cell line; PC12, pheochromocytoma of the rat adrenal medulla; HUVEC, human umbilical vein endothelial cells. These cells were purchased from the National Collection of Authenticated Cell Cultures (Shanghai, China).
(§2) The concentration of the cell suspension was adjusted to the appropriate concentration with fresh medium (the number of cells was about 30–40% of the bottom area of the well plate). 150 μL (about 1 × 10^4 cells) of prepared cell suspension containing different concentrations of NBU-2 were added to a 96-microtiter plate, and 3 replicate wells were set up for each concentration. If the cells were adherent, the cells were first allowed to grow overnight in 96 microtiter plates until the cells were adherent, and then the old medium was replaced with the drug-containing medium. The plates were incubated in a 5% CO2 cell incubator at 37 °C for 72 h. Then, 15 μL of MTT solution was added to each well, 100 μL of 10% SDS solution (pH = 2) was added after 4 h, and the plate was incubated at 37 °C with 5% CO2 overnight to fully dissolve the crystals. Finally, the absorbance value of each well was measured at 570 and 655 nm.
(§3) The cells (about 1 × 10^4 cells) were treated with different concentrations of NBU-2 and DMSO control for different times (24 h, 48 h, 72 h), with 3 replicate wells for each concentration. Incubate at 37 °C in a 5% CO2 cell culture incubator. After a predetermined time, 10 μL of CCK-8 was added to each well and incubated for 2 h. The absorbance was measured at the excitation wavelength of 450 nm.

[2] = tested on: A549, human lung cancer cell line; assay: Anti-proliferation MTT / CCK-8 assay; type: cell-based; conditions: A549, read-out: IC50 proliferation A549, heading: IC50 proliferation A549, 72 h, mean ± SEM of three independent assays
Description: as §1, §2, §3

[3] = tested on: CCRF-CEM, human leukemic lymphoblasts; assay: Anti-proliferation MTT / CCK-8 assay; type: cell-based
Description: as §1, §2, §3

[4] = tested on: HCT-116, human colorectal cancer cell line; assay: Anti-proliferation MTT / CCK-8 assay; type: cell-based; conditions: HCT-116, read-out: IC50 proliferation HCT-116, heading: IC50 proliferation HCT-116, 72 h, mean ± SEM of three independent assays
Description: as §1, §2, §3

[5] = tested on: HL-60, human leukemic cell line; assay: Anti-proliferation MTT / CCK-8 assay; type: cell-based
Description: as §1, §2, §3

[6] = tested on: K562, human erythroleukemia line; assay: Anti-proliferation MTT / CCK-8 assay; type: cell-based; conditions: K562, read-out: IC50 proliferation K562, heading: IC50 proliferation K562, 72 h, mean ± SEM of three independent assays
Description: as §1, §2, §3

[7] = tested on: MCF-7, human breast cancer cell line; assay: Anti-proliferation MTT / CCK-8 assay; type: cell-based; conditions: MCF7, read-out: IC50 proliferation MCF-7, heading: IC50 proliferation MCF-7, 72 h, mean ± SEM of three independent assays
Description: as §1, §2, §3

[8] = tested on: MDA-MB-231, human breast cancer cell line; assay: Anti-proliferation MTT / CCK-8 assay; type: cell-based; conditions: MDA-MB-231, read-out: IC50 proliferation MDA-MB-231, heading: IC50 proliferation MDA-MB-231, 72 h, mean ± SEM of three independent assays
Description: as §1, §2, §3

[9] = tested on: PC12, pheochromocytoma of the rat adrenal medulla; assay: Anti-proliferation MTT / CCK-8 assay; type: cell-based; conditions: PC-12, 72 h
Description: as §1, §2, §3

[10] = tested on: U937, human histiocytic lymphoma; assay: Anti-proliferation MTT / CCK-8 assay; type: cell-based
Description: as §1, §2, §3

[11] = molecular target: T1, HDAC6 (Homo sapiens, UniProt Q9UBN7); assay: In vitro HDAC enzymatic inhibition assay (HDAC kit, fluorescence)
T1 sequence (Q9UBN7 1-1215): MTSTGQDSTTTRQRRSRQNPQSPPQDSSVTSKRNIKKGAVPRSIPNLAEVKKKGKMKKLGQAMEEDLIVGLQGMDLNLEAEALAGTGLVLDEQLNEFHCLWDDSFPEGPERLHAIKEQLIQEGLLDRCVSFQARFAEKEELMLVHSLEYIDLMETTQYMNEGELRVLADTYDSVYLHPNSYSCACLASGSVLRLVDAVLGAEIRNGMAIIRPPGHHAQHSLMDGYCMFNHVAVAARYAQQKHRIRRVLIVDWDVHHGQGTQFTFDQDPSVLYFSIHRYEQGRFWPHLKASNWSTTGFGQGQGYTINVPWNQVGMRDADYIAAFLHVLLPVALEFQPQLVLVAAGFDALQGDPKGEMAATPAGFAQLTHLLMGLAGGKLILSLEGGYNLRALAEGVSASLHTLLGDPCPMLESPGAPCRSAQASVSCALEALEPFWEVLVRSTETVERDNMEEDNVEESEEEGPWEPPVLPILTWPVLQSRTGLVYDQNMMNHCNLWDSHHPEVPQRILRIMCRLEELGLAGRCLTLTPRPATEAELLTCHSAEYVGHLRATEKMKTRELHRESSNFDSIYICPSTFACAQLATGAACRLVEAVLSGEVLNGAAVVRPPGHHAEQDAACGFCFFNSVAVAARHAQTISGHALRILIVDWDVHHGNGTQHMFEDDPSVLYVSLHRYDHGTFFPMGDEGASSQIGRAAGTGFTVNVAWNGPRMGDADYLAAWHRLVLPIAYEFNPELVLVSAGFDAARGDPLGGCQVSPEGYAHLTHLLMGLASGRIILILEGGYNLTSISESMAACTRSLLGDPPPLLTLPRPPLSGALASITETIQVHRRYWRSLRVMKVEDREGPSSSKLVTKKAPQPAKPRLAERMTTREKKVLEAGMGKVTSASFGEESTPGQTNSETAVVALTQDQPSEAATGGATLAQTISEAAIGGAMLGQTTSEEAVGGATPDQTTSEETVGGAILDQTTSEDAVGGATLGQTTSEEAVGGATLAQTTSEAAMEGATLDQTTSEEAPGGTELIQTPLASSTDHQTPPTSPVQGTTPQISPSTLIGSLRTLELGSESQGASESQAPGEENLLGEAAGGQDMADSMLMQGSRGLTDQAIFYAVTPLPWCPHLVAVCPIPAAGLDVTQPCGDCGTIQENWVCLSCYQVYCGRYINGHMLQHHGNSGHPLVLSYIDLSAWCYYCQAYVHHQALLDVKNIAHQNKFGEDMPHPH
Description: Enzymatic assays were performed by Shanghai ChemPartner according to the HDAC kit protocol. […] Fluorescence was recorded at 355 nm excitation and 460 nm emission on a Synergy MX reader (PerkinElmer Life Sciences, Boston, MA, USA). IC50 values were derived from dose–response curves.

IC50 [1]: > 0.05 µM
IC50 [2]: 33.7 ± 2.15 µM
IC50 ([3]; 72 h, read-out: IC50 against CCRF-CEM): < 5 µM
IC50 ([3]; read-out: IC50 proliferation CCRF-CEM, 72 h, mean ± SEM of three independent assays): 2.68 ± 0.3 µM
IC50 [4]: 7.06 ± 1.48 µM
IC50 ([5]; HL-60, 72 h, read-out: IC50 against HL-60): < 5 µM
IC50 ([5]; HL-60, read-out: IC50 proliferation HL-60, heading: IC50 proliferation HL-60, 72 h, mean ± SEM of three independent assays): 1.92 ± 0.08 µM
IC50 [6]: 7.02 ± 1.85 µM
IC50 [7]: 14.9 ± 3.21 µM
IC50 [8]: 8.76 ± 1.88 µM
IC50 [9]: > 0.05 µM
IC50 ([10]; U-937, 72 h, read-out: IC50 against U937): < 5 µM
IC50 ([10]; U-937, read-out: IC50 proliferation U937, heading: IC50 proliferation U937, 72 h, mean ± SEM of three independent assays): 2.34 ± 1.08 µM
IC50 [11]: 0.00734 ± 0.0006 µM
Structure (SMILES): Cc1cccc2c(=O)c3c(NCCCCCC(=O)NO)ccc([N+](=O)[O-])c3[nH]c12 [NBU-2, N-hydroxy-6-((5-methyl-4-nitro-9-oxo-9,10-dihydroacridin-1-yl)amino)hexanamide]
